# Tests used:
# T47D = experiment: Apoptosis by flow cytometry (annexin V-FITC/PI), T47D; assay type: cell-based, human; conditions: 10 μM, 36 h
# Procedure: (§1) Apoptosis study was performed by flow cytometry using annexin V-FITC-labeled apoptosis detection kit (Sigma) following manufacturer's protocol. Cells (□×□□^□ cells/well) were seeded in six-well plates and incubate for 16-18 h. After 16-18 h, cells were either kept untreated or treated with 10 μM compound 1 and 10 μM 6c for 36 h. Next, cells were trypsinized and washed with PBS. Then the cells were re-suspended in 1× binding buffer at a density of 1×10^6 cells/ml and stained simultaneously with FITC-labeled annexin V (25 ng/ml) and propidium iodide (50 ng/ml). After 15 min incubation, cells were analyzed using a flow cytometer (FACS Canto II, Becton-Dickinson, San Jose, Calif., USA), and data were analyzed with FCS Express V3 software. Minimum of 10000 events were gated per sample.
# B16F10 = experiment: Apoptosis by flow cytometry (annexin V-FITC/PI), B16F10; assay type: cell-based, murine; conditions: B16F10, 10 μM, 36 h
# Procedure: as §1
# CHO = experiment: Apoptosis by flow cytometry (annexin V-FITC/PI), CHO; assay type: cell-based, Chinese hamster; conditions: 10 μM, 36 h
# Procedure: as §1
# [1] = tested on: apoptosis related protein in B16F10 cells; experiment: Western blot of B16F10 cell lysates: apoptosis related protein (FIG. 4A); assay type: cell-based, murine; conditions: B16F10, 10 μM, 36 h
# Procedure: (§2) For in vitro cell lysate preparation, B16F10 cells were either treated with compound 1 (10 μM), 6c (10 μM) or kept untreated for 36 h continuously. After that cells were washed with cold PBS for two times, and lysed by incubating for 30 min on ice with ice-cold RIPA lysis buffer (50 mM Tris [pH 7.5], 1% NP-40, 150 mM NaCl, 0.1% sodium dodecyl sulfate [SDS], 0.5% sodium deoxycholate) containing 1% proteinase inhibitor cocktails (PIC) (Cell Signaling Technology). Following 30 min of incubation cells were centrifuged at 14,000 rpm at 4° C. for 15 minutes, supernatant was collected, and Protein concentration was measured by using BCA assay a kit (thermo scientific). For in vivo whole cell lysate, after completion of the in vivo experiment one C57BL/6J mice with representative tumor size from each group was sacrificed and tumor was collected, lysed by ice-cold RIPA buffer with 1% PIC, whole cell lysate was prepared following the same steps as mentioned above. Respective cell lysates were run in SDS-PAGE gel (8%-15%) and then the bands were transferred to polyvinylidene fluoride (PVDF) membrane. Membranes were then first incubated with respective primary antibodies and then with alkaline phosphates conjugated secondary antibody (Goat-anti-rabbit and Goat-anti-mouse). Immunodetection was performed with BCIP/NBT substrate (Sigma-Aldrich).
# (§3) Cytochrome-C (4272S), BAX (2772S), Bcl-2 (2876S), Cassepase-3 (9665S), β-actin (8457S), PI3K-p110α (4249S), PI3K-p85 (4257S), AKT (272S), p-AKT (4060S), PTEN (9552S), p-mdm2 (3521S), p53 (2524S), GAPDH (5174S) were purchased from Cell Signaling Technology; Casepase-9 (PA5-16358) was purchased from Pierce; mdm2 (ab38618) was purchased from Abcam; secondary antibodies mouse anti-rabbit IgG-PE (sc-3753) was purchased from Santa Cruz Biotechnology; Goat anti-mouse IgG Alkaline Phosphatase (DC05L) and goat anti-rabbit IgG Alkaline Phosphatase (DC06L) were purchased from Calbiochem.
# [2] = tested on: PI3K/AKT pathway involving protein in B16F10 cells; experiment: Western blot of B16F10 cell lysates: PI3K/AKT pathway involving protein (FIG. 4B); assay type: cell-based, murine; conditions: B16F10, 10 μM, 36 h
# Procedure: as §2, §3
# B16F10 tumor = experiment: In vivo tumor study, B16F10 melanoma model; parameters: species or system C57BL6/J mice; conditions: 15 mg/Kg i.p., 5 injections
# Procedure: 6-8 weeks old female C57BL6/J mice, obtained from CCMB (Hyderabad, India), were subcutaneously inoculated with 2.5×10^5 B16F10 cells in the lower left abdomen. Thirteen days after B16F10 cell inoculation, mice were grouped as per the treatment where each group contained 5 mice. The groups were as follows (i) untreated group, (ii) treated with progesterone (compound 1) (6 mg/Kg) and (iii) 6c (15 mg/Kg). Each compound suspended in PBS containing 10% DMSO and injected intraperitoneally to the respective mice. Five injections were given with a gap of 2 days. The tumor sizes were measured in volume (mm^3) and calculated using the formula (0.5ab^2), where ‘a’ represents the longest dimension and ‘b’ is the shortest dimension of the tumors. Experiment was terminated when the average tumor volume of the untreated group reached ˜4000 mm^3. All animal work was done following the protocols approved by Institutional Animal Ethical Committee of CSIR-IICT, India.
# [3] = tested on: B16F10 tumor lysate proteins; experiment: Western blot analysis with B16F10 tumor lysates (FIG. 5B); parameters: species or system C57BL/6J mice; conditions: B16F10 tumor lysate after in vivo treatment
# Procedure: as §2, with “(Sigma-Aldrich). […]” for “(Sigma-Aldrich).”
# B16F10 tumor sections = experiment: TUNEL assay with VE-cadherin staining on tumor sections; assay type: in vivo, mice
# Procedure: After completion of the in vivo experiment, one mouse from each group was sacrificed to check the apoptosis in tumor mass. First the tumors were frozen in Jung tissue medium (Leica Microsystem, Germany) followed by cryo-sectioning of 10 μm thin sections using Leica CM1850 cryostat (Germany). These were then fixed into 4% formalin for 15 min. TUNEL assay was carried out using Dead-End fluorometric apoptosis detection kit ([…]) following manufacturer's protocol. The same cryosections were washed with PBS and incubated with VE-cadherin mouse monoclonal antibody at 1:200 dilutions (Santa Cruz Biotech.) for 2 h at 4° C. to stain the blood vessel, followed by one hour incubation with goat anti-mouse IgG-PE (Santa Cruz Biotech.) secondary antibody; after that tissue sections were washed and observed under Nikon TE2000E microscope at 10× magnification.
structure (smiles),measurement,setting,value
"CCCCCCCCCC[N+](C)(CCCCCCCCCC)CCNC(=O)CCC(=O)O[C@@H](C)[C@H]1CCC2C3CCC4=CC(=O)CC[C@]4(C)C3CC[C@@]21C (stereo partly drawn) [Compound 6c, N-decyl-N-(2-(4-((1S)-1-((10R,13S,17S)-10,13-dimethyl-3-oxo-2,3,6,7,8,9,10,11,12,13,14, 15,16,17-tetradecahydro-1H-cyclopenta[a]phenanthren-17-yl)ethoxy)-4-oxobutanamido)ethyl)-N-methyldecan-1-aminium chloride]",apoptotic cell,T47D,73%
same,apoptotic cell,B16F10,53.22%
same,apoptosis in normal cell,CHO,largely remains unaffected
same,BAX/Bcl-2 ratio compared to untreated group,[1],~4 fold
same,caspase 3 expression,[1],increase in level
same,caspase 9,[1],formation of active caspase 9
same,cytochrome C expression,[1],elevated expression
same,PTEN protein expression,[2],elevated expression
same,expression of catalytic and regulatory subunit of PI3K protein,[2],decrease in the expression
same,p53 expression level,[2],elevated the expression level
same,p-AKT level compared to PR treated group,[2],significant reduction
same,pMdm2 level,[2],reduced
same,tumor growth and aggression versus UT and progesterone-treated groups,B16F10 tumor; B16F10 in C57BL6/J mice,significant inhibition
same,tumor size of UT group compared to treated group,B16F10 tumor; day 25 from tumor cell inoculation,~4 times
same,caspase 3 in tumor lysate,[3],increase
same,p53 expression level in tumor lysate,[3],significant increase
same,extent of apoptosis induced in the blood vessel,"B16F10 tumor sections; TUNEL / VE-cadherin merge, tumor sections",very high
same,number of apoptotic cells in tumor compared to untreated or PR,"B16F10 tumor sections; TUNEL, tumor sections of treated mice",significantly higher
